From article PMC3535830 (Bioorganic & medicinal chemistry letters, 2012)
Like-named read-outs stand apart in the source and are kept apart here.

Tests used:
human M4 receptor [1] = molecular target: T1, human M4 receptor (Homo sapiens, UniProt P08173); test: human M4 positive allosteric modulator potency assay; type: cell-based; conditions: human M4 PAM; mean of at least 3 experiments
T1 sequence (P08173 1-479): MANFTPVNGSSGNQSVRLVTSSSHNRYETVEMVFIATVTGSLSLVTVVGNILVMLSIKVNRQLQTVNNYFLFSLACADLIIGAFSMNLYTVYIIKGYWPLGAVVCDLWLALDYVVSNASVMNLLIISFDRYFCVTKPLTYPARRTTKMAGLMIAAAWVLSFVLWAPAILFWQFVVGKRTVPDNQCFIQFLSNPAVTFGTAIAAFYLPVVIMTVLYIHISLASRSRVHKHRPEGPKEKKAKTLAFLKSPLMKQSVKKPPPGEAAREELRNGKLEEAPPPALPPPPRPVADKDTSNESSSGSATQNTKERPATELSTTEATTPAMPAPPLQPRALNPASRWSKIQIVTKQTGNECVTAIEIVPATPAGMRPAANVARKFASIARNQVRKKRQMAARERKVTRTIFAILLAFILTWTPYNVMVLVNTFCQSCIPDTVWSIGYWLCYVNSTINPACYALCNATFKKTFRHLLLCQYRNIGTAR

human M4 receptor [2] = molecular target: T1, human M4 receptor; conditions: cited from earlier work
[3] = in vitro PK: predicted hepatic clearance, rat; type: in vitro ADME; conditions: for predicted clearance in the rat (CLHEP), in words: in vitro PK prediction; for rCLHEP: in vitro predicted hepatic clearance
[4] = test system: other four mAChR subtypes (M1, M2, M3, M5); test: selectivity against the other four mAChR subtypes; type: cell-based; conditions: read-out: activity against all four other mAChR subtypes
rat M4 receptor = molecular target: T2, rat M4 receptor (Rattus norvegicus, UniProt P08485); conditions: read-out: rat M4 potency; cited from earlier work
T2 sequence (P08485 1-478): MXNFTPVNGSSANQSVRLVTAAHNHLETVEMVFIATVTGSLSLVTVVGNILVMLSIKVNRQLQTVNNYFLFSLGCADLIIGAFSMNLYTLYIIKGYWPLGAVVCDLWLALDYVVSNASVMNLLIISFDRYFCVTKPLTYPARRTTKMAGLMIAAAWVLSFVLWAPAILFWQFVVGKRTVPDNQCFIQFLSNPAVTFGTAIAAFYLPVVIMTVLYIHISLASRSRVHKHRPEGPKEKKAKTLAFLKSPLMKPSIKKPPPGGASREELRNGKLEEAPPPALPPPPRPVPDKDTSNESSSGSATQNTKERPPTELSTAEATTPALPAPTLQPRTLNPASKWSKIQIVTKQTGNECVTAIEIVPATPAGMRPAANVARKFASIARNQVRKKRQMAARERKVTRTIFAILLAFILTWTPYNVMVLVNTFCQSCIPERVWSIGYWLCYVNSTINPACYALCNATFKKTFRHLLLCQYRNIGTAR

hM2 = molecular target: T3, hM2 (Homo sapiens, UniProt P08172); test: muscarinic selectivity hM2; type: cell-based
T3 sequence (P08172 1-466): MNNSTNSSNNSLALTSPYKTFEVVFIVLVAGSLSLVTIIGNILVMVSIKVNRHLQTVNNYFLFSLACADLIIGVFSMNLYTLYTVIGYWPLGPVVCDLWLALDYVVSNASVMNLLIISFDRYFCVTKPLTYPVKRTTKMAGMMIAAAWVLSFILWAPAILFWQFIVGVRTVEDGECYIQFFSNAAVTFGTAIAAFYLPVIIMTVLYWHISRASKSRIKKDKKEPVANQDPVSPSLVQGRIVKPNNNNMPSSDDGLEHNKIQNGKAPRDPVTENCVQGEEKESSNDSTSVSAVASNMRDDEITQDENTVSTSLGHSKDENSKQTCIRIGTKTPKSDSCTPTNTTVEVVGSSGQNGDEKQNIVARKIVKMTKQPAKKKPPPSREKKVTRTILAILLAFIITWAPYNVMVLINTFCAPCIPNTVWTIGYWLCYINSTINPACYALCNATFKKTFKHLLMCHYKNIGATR

[5] = rat equilibrium dialysis plasma protein binding; type: in vitro ADME; conditions: fraction unbound
[6] = in vitro PK: predicted hepatic clearance, human; type: in vitro ADME
rM2 = molecular target: T4, rM2 (Rattus norvegicus, UniProt P10980); test: muscarinic selectivity rM2; type: cell-based
T4 sequence (P10980 1-466): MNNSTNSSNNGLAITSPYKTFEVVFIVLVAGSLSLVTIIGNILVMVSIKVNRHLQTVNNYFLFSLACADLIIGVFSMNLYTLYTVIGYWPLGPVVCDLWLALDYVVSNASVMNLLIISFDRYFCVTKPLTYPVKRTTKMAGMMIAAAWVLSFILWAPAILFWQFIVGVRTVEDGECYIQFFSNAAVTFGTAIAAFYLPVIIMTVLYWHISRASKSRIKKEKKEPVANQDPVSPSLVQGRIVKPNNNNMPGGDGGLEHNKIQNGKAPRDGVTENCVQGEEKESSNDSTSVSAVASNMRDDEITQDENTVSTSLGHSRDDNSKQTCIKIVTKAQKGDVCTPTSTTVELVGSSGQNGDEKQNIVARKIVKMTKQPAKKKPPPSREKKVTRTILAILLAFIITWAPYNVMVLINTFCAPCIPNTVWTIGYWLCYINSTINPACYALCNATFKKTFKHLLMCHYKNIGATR

| Compound | pEC50 ± SEM (human M4 receptor [1]) | other results |
| --- | --- | --- |
| Cc1nc2sc(C(=O)NCc3ccc4c(c3)OCO4)c(N)c2c(C)c1Cl [Compound 18] | 7.09 ± 0.08 | – |
| Cc1nc2sc(C(=O)NCc3cccc(F)c3F)c(N)c2c(C)c1Cl [Compound 2] | 6.91 ± 0.05 | – |
| Cc1nc2sc(C(=O)NCCc3ccccn3)c(N)c2c(C)c1Cl [Compound 13] | 6.07 ± 0.06 | – |
| COc1ccc(C)c2sc(NC(=O)c3ccncc3)nc12 [ML293] | – | EC50 (human M4 receptor [2]; read-out: hM4 potency, previously reported probe, ref 9d): 1.3 µM |
| Cc1nc2sc(C(=O)NC3CCOC3)c(N)c2c(C)c1Cl (centres unmarked) [Compound 29] | 7.28 ± 0.07 | – |
| Cc1nc2sc(C(=O)NCc3ccc(Cl)cc3)c(N)c2c(C)c1Cl [Compound 23] | 6.75 ± 0.14 | – |
| Cc1nc2sc(C(=O)NCc3ccncc3)c(N)c2c(C)c1Cl [Compound 4, 3-amino-5-chloro-4,6-dimethyl-N-(pyridinyl-4-methyl)thieno[2,3-b]pyridine-2-carboxamide] | – | predicted clearance in the rat (CLHEP), in words [3]: high clearance; rCLHEP [3]: 55.2 mL/min/kg; EC50 [4]: > 30 µM |
| Cc1nc2sc(C(=O)NC(C)C)c(N)c2c(C)c1Cl [Compound 31] | 6.83 ± 0.06 | – |
| Cc1nc2sc(C(=O)NCc3ccnnc3)c(N)c2c(C)c1Cl [Compound 17] | 6.49 ± 0.08 | – |
| COc1nc2sc(C(=O)NC3CC3)c(N)c2c(C)c1Cl [LY2033298] | – | EC50 (human M4 receptor [2]; read-out: human M4 potency, human receptor): 0.065 µM; EC50 (rat M4 receptor): 0.629 µM |
| Cc1nc2sc(C(=O)NCCC3CCCN3C)c(N)c2c(C)c1Cl (centres unmarked) [Compound 36] | 6.03 ± 0.07 | – |
| Cc1nc2sc(C(=O)NCc3ccccc3Cl)c(N)c2c(C)c1Cl [Compound 21] | 6.81 ± 0.07 | – |
| Cc1nc2sc(C(=O)NCc3nccs3)c(N)c2c(C)c1Cl [Compound 24] | 6.60 ± 0.07 | – |
| Cc1nc2sc(C(=O)NC(C)c3ccccn3)c(N)c2c(C)c1Cl (centres unmarked) [Compound 10] | 5.86 ± 0.07 | – |
| Cc1ccc(CNC(=O)c2sc3nc(C)c(Cl)c(C)c3c2N)cc1 [Compound 22] | 6.98 ± 0.10 | – |
| Cc1nc2sc(C(=O)NC(C)(C)C)c(N)c2c(C)c1Cl [Compound 34] | 6.51 ± 0.05 | – |
| Cc1nc2sc(C(=O)NC3COC3)c(N)c2c(C)c1Cl [Compound 30] | 5.70 ± 0.24 | – |
| Cc1nc2sc(C(=O)NCc3ccc(F)c(F)c3)c(N)c2c(C)c1Cl [Compound 20] | 6.81 ± 0.28 | – |
| Cc1nc2sc(C(=O)NC3CCCCC3)c(N)c2c(C)c1Cl [Compound 32] | 6.65 ± 0.03 | – |
| Cc1nc2sc(C(=O)NC3CC3)c(N)c2c(C)c1Cl [Compound 3] | 7.11 ± 0.32 | EC50 (hM2): ~0.6 µM; rPPB (%fu) [5]: ~ 2%; hCLHEP [6]: 13.9 mL/min/kg; predicted clearance in the rat (CLHEP), in words [3]: high clearance; rCLHEP [3]: 51.0 mL/min/kg; EC50 (rM2): ~0.6 µM |
| Cc1nc2sc(C(=O)NCc3ccccc3)c(N)c2c(C)c1Cl [Compound 19] | 6.97 ± 0.05 | – |
| Cc1cc(CNC(=O)c2sc3nc(C)c(Cl)c(C)c3c2N)ccn1 [Compound 6] | 7.21 ± 0.05 | – |
| Cc1nc2sc(C(=O)NCc3ccc(C(F)(F)F)cc3)c(N)c2c(C)c1Cl [Compound 25] | 5.76 ± 0.27 | – |
| Cc1nc2sc(C(=O)NC(C)c3cccnc3)c(N)c2c(C)c1Cl (centres unmarked) [Compound 8] | 6.17 ± 0.08 | – |
| Cc1nc2sc(C(=O)NCc3ccncn3)c(N)c2c(C)c1Cl [Compound 15] | 6.57 ± 0.06 | – |
| Cc1nc2sc(C(=O)NCCc3ccncc3)c(N)c2c(C)c1Cl [Compound 11] | 6.89 ± 0.09 | – |
